Laboratory results as given in ChEMBL document CHEMBL4368915, “Synthesis and Biological Investigation of Phenothiazine-Based Benzhydroxamic Acids as Selective Histone Deacetylase 6 Inhibitors” (J Med Chem, 2019).
pIC50: −log10 of the molar value. One block for each molecule: values may come before it. Activity calls are given as the source filed them. No cut-off for these calls is given here.

Tests used:
[1] = target: T1, Protein deacetylase HDAC6 (Homo sapiens, UniProt Q9UBN7)
T1 sequence (Q9UBN7 whole entry): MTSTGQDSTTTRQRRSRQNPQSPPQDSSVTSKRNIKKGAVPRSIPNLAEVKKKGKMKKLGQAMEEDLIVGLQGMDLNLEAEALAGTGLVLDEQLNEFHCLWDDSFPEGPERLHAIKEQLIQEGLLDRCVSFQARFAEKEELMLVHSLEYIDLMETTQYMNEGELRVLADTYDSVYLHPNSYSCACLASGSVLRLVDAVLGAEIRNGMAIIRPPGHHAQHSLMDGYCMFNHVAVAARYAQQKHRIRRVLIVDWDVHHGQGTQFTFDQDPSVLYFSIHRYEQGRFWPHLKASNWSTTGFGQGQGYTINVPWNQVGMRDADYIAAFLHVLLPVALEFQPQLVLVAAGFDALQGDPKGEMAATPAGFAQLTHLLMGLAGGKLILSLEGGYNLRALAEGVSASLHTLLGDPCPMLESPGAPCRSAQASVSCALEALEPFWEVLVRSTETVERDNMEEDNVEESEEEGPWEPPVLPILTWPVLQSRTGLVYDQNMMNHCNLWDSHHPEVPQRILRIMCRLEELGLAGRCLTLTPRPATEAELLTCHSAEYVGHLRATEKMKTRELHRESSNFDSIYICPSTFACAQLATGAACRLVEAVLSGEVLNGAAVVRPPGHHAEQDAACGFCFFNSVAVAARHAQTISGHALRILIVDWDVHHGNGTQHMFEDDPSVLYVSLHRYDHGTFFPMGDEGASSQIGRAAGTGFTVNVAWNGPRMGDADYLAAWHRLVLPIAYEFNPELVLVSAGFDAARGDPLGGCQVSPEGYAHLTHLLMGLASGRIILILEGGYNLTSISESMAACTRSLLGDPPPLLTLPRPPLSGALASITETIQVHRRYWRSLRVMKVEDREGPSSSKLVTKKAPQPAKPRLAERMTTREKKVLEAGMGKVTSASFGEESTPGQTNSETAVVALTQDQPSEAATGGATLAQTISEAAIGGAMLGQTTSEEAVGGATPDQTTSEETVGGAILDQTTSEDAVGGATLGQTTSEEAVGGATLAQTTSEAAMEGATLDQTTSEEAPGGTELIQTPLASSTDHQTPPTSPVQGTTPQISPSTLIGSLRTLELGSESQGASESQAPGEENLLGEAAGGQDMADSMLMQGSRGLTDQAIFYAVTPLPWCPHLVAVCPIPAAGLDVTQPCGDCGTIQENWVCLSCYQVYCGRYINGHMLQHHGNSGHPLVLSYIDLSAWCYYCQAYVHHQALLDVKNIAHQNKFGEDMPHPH

[2] = Drug level in human liver microsomes treated with 2 uM 4-[(10H-Phenothiazin-10-yl)methyl]-N-hydroxybenzamide assessed as compound formation after 40 mins by LC-MS/MS analysis; type: ADME, Microsome
Histone deacetylase 1 = Histone deacetylase 1 (Homo sapiens, UniProt Q13547)
Sequence of Histone deacetylase 1 (Q13547 whole entry): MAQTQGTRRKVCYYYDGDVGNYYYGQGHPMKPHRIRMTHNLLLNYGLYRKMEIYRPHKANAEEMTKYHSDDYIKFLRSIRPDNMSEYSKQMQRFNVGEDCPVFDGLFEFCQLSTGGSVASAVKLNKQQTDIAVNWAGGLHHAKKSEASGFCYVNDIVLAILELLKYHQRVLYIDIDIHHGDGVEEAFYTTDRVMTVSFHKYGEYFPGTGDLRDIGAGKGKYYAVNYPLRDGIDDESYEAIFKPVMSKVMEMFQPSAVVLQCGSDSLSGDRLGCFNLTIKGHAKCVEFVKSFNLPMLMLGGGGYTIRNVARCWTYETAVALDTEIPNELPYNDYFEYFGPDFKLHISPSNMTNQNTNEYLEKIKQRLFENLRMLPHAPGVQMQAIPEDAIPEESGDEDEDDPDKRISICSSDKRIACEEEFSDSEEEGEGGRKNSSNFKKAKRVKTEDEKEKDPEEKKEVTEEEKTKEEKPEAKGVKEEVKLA

[3] = Intrinsic clearance in human liver microsomes at 2 uM by LC-MS/MS analysis; type: ADME, Microsome
[4] = Half life in human liver microsomes at 2 uM by LC-MS/MS analysis; type: ADME, Microsome
Histone deacetylase 8 = target: T2, Histone deacetylase 8 (Homo sapiens, UniProt Q9BY41)
T2 sequence (Q9BY41 whole entry): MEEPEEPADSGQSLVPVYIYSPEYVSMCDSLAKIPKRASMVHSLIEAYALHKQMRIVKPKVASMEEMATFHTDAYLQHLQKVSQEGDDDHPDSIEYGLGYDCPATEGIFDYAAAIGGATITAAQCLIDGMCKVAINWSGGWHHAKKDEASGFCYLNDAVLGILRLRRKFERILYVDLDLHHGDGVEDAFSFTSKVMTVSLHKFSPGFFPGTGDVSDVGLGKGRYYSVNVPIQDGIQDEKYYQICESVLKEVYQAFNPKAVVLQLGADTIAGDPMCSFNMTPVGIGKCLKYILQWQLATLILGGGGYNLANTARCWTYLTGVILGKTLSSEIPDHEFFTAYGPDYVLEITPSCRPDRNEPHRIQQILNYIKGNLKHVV

CYP2C9 = CYP2C9 (Homo sapiens, UniProt P11712); test: Inhibition of human CYP2C9 in human liver microsomes at 10 uM relative to control; type: ADME
Sequence of CYP2C9 (P11712 whole entry, the tested form may be a part): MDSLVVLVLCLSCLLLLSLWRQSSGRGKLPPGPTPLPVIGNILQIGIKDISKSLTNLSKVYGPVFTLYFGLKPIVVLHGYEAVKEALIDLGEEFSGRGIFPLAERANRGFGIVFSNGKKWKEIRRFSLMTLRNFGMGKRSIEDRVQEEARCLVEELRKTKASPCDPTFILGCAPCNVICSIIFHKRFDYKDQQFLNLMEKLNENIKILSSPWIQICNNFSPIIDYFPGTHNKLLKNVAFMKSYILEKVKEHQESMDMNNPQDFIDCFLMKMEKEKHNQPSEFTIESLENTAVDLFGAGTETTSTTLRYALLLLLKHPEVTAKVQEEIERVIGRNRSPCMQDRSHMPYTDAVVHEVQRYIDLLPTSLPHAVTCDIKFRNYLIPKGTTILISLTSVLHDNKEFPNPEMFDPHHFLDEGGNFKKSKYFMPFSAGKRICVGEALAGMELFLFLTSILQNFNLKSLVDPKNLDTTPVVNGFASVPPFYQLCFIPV

[5] = target: Histone deacetylase 4 (Homo sapiens) (UniProt P56524); test: Inhibition of recombinant N-terminal GST/His-tagged human HDAC4 (627 to 1084 residues) expressed in baculovirus expression system at 10 uM using fluorogenic ZMTFAL as substrate incubated for 90 mins by fluorescence assay relative to control
Sequence of Histone deacetylase 4 (Homo sapiens) (P56524 whole entry, the tested form may be a part): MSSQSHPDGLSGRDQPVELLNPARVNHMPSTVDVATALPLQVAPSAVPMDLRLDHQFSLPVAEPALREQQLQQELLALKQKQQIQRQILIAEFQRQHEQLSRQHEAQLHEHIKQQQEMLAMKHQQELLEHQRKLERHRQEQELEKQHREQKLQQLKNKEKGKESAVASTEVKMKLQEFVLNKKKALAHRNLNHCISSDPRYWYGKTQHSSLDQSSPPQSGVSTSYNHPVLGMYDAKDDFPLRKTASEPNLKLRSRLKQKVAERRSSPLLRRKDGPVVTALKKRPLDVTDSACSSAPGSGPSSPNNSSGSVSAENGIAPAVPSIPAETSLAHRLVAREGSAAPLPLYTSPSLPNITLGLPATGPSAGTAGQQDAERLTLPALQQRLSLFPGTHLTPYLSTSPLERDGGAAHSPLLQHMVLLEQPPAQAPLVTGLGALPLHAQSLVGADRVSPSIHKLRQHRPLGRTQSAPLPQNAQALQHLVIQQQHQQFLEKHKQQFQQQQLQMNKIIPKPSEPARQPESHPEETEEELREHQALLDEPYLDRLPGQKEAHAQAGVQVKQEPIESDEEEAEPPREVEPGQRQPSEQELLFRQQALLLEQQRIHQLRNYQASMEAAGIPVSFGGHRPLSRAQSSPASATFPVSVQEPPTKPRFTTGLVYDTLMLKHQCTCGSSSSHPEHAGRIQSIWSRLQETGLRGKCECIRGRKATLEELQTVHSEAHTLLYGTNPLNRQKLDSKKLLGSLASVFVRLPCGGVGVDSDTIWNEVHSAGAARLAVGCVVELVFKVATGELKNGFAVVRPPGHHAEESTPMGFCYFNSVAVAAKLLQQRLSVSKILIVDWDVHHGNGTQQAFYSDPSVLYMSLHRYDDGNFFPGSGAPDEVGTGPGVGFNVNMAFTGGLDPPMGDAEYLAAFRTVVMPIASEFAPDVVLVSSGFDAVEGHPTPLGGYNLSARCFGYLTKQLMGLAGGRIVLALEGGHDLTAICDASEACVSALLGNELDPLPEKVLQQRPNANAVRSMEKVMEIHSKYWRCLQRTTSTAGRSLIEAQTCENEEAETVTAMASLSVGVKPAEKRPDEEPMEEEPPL

HepaRG = test: (§1) Cytotoxicity against human HepaRG cells assessed as cell viability at 100 uM after 24 hrs by CellTiter blue-reagent based assay relative to control; conditions: heparg, 24 h, 100 µM
T-24 [6] = test: Synergistic potentiation of Bortezomib-induced antiproliferative activity against human T24 cells assessed as effect on cell index, at 1 uM incubated for 24 hrs by cell impedance based assay; type: functional
CYP2C19 = CYP2C19 (Homo sapiens, UniProt P33261); test: Inhibition of human CYP2C19 in human liver microsomes at 10 uM relative to control; type: ADME
Sequence of CYP2C19 (P33261 whole entry): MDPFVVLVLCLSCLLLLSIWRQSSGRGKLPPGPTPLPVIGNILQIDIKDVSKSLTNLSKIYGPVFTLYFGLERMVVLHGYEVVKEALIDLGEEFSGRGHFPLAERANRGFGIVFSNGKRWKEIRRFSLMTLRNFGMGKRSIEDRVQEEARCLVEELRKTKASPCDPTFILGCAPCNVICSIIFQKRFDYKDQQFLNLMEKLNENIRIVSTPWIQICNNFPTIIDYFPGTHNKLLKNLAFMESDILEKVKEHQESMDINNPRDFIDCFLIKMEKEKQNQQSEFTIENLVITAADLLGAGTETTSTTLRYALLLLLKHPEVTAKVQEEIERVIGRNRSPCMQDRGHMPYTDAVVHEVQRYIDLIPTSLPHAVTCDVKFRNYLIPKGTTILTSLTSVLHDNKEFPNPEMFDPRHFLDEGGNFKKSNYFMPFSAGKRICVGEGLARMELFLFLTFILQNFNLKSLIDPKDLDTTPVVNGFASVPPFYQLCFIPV

Huh-7 = test: Antiproliferative activity against human HuH7 cells assessed as inhibition of cell proliferation at 10 to 100 uM after 72 hrs by CellTiter blue-reagent based assay; type: functional
MDA-MB-231 [7] = test: Antiproliferative activity against human MDA-MB-231 cells assessed as inhibition of cell proliferation at 10 to 100 uM after 72 hrs by CellTiter blue-reagent based assay; type: functional
CYP2D6 = CYP2D6 (Homo sapiens, UniProt P10635); test: Inhibition of human CYP2D6 in human liver microsomes at 10 uM relative to control; type: ADME
Sequence of CYP2D6 (P10635 whole entry): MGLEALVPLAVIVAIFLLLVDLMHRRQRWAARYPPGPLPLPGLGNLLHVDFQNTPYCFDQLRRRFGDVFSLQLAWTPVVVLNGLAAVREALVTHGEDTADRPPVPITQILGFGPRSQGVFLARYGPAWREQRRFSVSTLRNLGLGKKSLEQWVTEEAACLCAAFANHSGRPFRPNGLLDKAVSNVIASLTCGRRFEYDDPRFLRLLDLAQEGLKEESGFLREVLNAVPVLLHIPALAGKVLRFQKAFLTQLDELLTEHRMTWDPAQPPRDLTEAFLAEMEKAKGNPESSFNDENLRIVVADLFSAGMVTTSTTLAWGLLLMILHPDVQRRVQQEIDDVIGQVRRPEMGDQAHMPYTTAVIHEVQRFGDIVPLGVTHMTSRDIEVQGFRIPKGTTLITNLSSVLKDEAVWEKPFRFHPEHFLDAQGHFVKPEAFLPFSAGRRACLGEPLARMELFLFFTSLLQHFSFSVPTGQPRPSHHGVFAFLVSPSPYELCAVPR

T-24 [8] = test: Antiproliferative activity against human T24 cells assessed as inhibition of cell proliferation at 10 to 100 uM after 72 hrs by CellTiter blue-reagent based assay; type: functional
[9] = Stability in human liver microsomes assessed as compound remaining at 2 uM measured up to 20 mins by LC-MS/MS analysis; type: ADME, Microsome
CYP1A2 = target: T3, CYP1A2 (Homo sapiens, UniProt P05177); test: Inhibition of human CYP1A2 in human liver microsomes at 10 uM relative to control; type: ADME
T3 sequence (P05177 whole entry): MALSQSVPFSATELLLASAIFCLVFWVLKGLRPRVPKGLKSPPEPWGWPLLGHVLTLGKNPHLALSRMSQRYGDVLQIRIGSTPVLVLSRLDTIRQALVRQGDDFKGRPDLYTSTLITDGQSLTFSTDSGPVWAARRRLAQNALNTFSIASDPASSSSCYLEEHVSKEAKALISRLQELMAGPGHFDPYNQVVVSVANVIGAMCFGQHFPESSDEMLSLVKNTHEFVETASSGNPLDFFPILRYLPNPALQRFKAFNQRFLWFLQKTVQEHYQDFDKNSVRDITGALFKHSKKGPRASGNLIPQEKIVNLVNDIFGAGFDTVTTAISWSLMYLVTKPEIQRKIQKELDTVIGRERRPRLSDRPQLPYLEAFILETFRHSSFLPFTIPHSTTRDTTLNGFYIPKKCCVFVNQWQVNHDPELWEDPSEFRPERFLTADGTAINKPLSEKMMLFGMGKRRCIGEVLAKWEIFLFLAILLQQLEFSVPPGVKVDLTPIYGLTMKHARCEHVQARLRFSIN

[10] = Drug metabolism in human liver microsomes assessed as N-Hydroxy-4-[(5-oxido-10H-Phenothiazin-10-yl)methyl]-benzamide formation at 2 uM after 40 mins by LC-MS/MS analysis; type: ADME, Microsome
[11] = Stability in human liver microsomes assessed as compound remaining at 2 uM after 40 mins by LC-MS/MS analysis; type: ADME, Microsome; conditions: read-out: Stability
CYP3A4 = CYP3A4 (Homo sapiens, UniProt P08684); test: Inhibition of human CYP3A4 in human liver microsomes at 10 uM relative to control; type: ADME
Sequence of CYP3A4 (P08684 whole entry): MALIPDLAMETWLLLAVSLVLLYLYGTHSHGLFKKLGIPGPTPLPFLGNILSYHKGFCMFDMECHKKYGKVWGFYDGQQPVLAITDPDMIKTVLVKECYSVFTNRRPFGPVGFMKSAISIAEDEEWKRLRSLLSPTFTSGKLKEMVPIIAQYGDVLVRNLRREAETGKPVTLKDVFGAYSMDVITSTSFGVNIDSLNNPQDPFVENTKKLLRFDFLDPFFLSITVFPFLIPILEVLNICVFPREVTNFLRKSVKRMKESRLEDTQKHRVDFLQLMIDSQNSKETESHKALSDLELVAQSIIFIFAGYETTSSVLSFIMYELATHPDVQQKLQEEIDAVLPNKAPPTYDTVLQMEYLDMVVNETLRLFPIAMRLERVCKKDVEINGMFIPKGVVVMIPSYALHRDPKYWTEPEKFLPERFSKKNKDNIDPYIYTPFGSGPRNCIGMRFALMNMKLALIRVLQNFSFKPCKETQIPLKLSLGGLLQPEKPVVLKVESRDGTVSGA

[12] = Drug metabolism in human liver microsomes assessed as 4-[(5,5-Dioxido-10H-phenothiazin-10-yl)methyl]-N-hydroxybenzamide formation at 2 uM after 40 mins by LC-MS/MS analysis; type: ADME, Microsome
MCF7 = test: Antiproliferative activity against human MCF7 cells after 72 hrs by CellTiter blue-reagent based assay; type: functional, cell-based
THP-1 = test: Antiproliferative activity against human THP1 cells after 72 hrs by CellTiter blue-reagent based assay; type: functional, cell-based
HL-60 = test: Antiproliferative activity against human HL60 cells after 72 hrs by CellTiter blue-reagent based assay; type: functional, cell-based
MDA-MB-231 [13] = test: Induction of apoptosis in human MDA-MB-231 cells at 1 to 10 uM after 48 hrs by propidium iodide-staining based FACS analysis; type: functional, cell-based
T-24 [14] = test: Induction of apoptosis in human T24 cells at 1 to 10 uM after 48 hrs by propidium iodide-staining based FACS analysis; type: functional, cell-based
[15] = as §1; conditions: HepaRG cells, read-out: Activity
[16] = target: T4, Histone deacetylase 8 (Homo sapiens) (UniProt Q9BY41); test: Inhibition of recombinant human HDAC8 expressed in baculovirus expression system at 1 uM using fluorogenic Arg-His-Lys(Ac)-Lys(Ac) as substrate incubated for 90 mins by fluorescence assay
T4 sequence (whole entry): T2 sequence (Q9BY41 whole entry)

SMILES: O=C(NO)c1ccc(CN2c3ccccc3S(=O)(=O)c3ccccc32)cc1
Drug uptake [2]: Active | pIC50 (Histone deacetylase 1): 5.40

SMILES: O=C(NO)c1ccc(CN2c3ccccc3Sc3cccc(Cl)c32)cc1
pIC50 (Histone deacetylase 1): 5.24 | pIC50 [1]: 7.80

SMILES: O=C(NO)c1ccc(CN2c3ccccc3[S+]([O-])c3ccccc32)cc1
Drug uptake [2]: Active | pIC50 (Histone deacetylase 1): 5.17 | pIC50 [1]: 7.11

SMILES: O=C(CCCCCCC(=O)Nc1ccc([C@H]2O[C@@H](CSc3nc(-c4ccccc4)c(-c4ccccc4)o3)C[C@@H](c3ccc(CO)cc3)O2)cc1)NO [TUBACIN]
pIC50 (Histone deacetylase 1): 6.00

SMILES: Cn1c(=O)c2c(ncn2C)n(C)c1=O [CAFFEINE]
CLH [3]: 4 µL/min/mg | t1/2 [4]: 6.22 h

SMILES: O=C(NO)c1ccc(CN2N=CC=C3Sc4ccccc4N=C32)cc1
pIC50 [1]: 7.72

SMILES: O=C(NO)c1ccc(CN2N=C(Cl)C=C3Sc4ccccc4N=C32)cc1
pIC50 [1]: 6.94

SMILES: O=C(NO)c1ccc(CN2c3cccnc3Sc3cccnc32)cc1
pIC50 [1]: 7.85

SMILES: O=C(NO)c1ccc(CN2c3ccccc3Sc3cccnc32)cc1
pIC50 (Histone deacetylase 8): 5.51 | CLH [3]: 11 µL/min/mg | inhibition at 10 µM (CYP2C9): 3.4% | inhibition [5]: < 20% | Activity (HepaRG): Non-Toxic | pIC50 (Histone deacetylase 1): 5.57 | t1/2 [4]: 2.47 h | Activity (T-24 [6]): inactive | inhibition at 10 µM (CYP2C19): 27.7% | inhibition (Huh-7): Active | inhibition (MDA-MB-231 [7]): Active | inhibition at 10 µM (CYP2D6): 12% | inhibition (T-24 [8]): Active | Stability [9]: Stable | inhibition at 10 µM (CYP1A2): 15.2%

SMILES: O=C(NO)c1ccc(CN2c3ccccc3Sc3ccccc32)cc1
pIC50 (Histone deacetylase 8): 5.83 | CLH [3]: 14 µL/min/mg | inhibition at 10 µM (CYP2C9): 24.4% | inhibition [5]: < 20% | Activity (HepaRG): Non-Toxic | pIC50 (Histone deacetylase 1): 5.29 | t1/2 [4]: 1.95 h | Activity (T-24 [6]): inactive | Drug metabolism [10]: Metabolite_Detected | inhibition at 10 µM (CYP2C19): 36.4% | remaining at 40 min, 2 µM [11]: 77% | inhibition at 10 µM (CYP3A4): 24.3% | Drug metabolism [12]: Metabolite_Detected | inhibition at 10 µM (CYP2D6): 45.4% | inhibition at 10 µM (CYP1A2): 20%

SMILES: O=C(CCCCCCC(=O)Nc1ccccc1)NO
Activity (MCF7): Active | Activity (THP-1): Active | Activity (HL-60): Active | Activity (MDA-MB-231 [13]): Active | Activity (T-24 [14]): Active

SMILES: O=C(NO)c1ccc(CN2c3ccccc3Sc3ccc(Cl)cc32)cc1
pIC50 (Histone deacetylase 1): 5.53 | pIC50 [1]: 7.92

SMILES: O=C(NO)c1ccc(CN2c3ccncc3Sc3ncccc32)cc1
pIC50 (Histone deacetylase 8): 5.70 | inhibition [5]: < 20% | viability at 24 h, 100 µM [15]: 80% | pIC50 (Histone deacetylase 1): 5.48 | Activity (T-24 [6]): inactive | pIC50 [1]: 7.92 | inhibition (Huh-7): Active | inhibition (MDA-MB-231 [7]): Active | inhibition (T-24 [8]): Active

SMILES: O=C(NO)c1ccc(CN2c3ccccc3Sc3ccc(C(F)(F)F)cc32)cc1
pIC50 (Histone deacetylase 1): 5.13 | pIC50 [1]: 7.60

SMILES: CCSc1ccc2c(c1)N(Cc1ccc(C(=O)NO)cc1)c1ccccc1S2
pIC50 (Histone deacetylase 1): 5.14 | pIC50 [1]: 7.51

SMILES: COc1ccc2c(c1)N(Cc1ccc(C(=O)NO)cc1)c1ccccc1S2
pIC50 (Histone deacetylase 1): 5.68 | pIC50 [1]: 8.00

Further lines, results first:

pIC50 [1]: 7.96
SMILES: O=C(NO)c1ccc(CN2c3ccccc3Sc3ccnnc32)cc1

pIC50 [1]: 6.87
SMILES: O=C(NO)c1ccc(CCN2c3ccccc3Sc3ccccc32)cc1

pIC50 [1]: 8.05
SMILES: O=C(NO)c1ccc(CN2c3ccncc3Sc3ccncc32)cc1

pIC50 [1]: 5.57
SMILES: O=C(NO)c1ccc(N2c3ccccc3Sc3ccccc32)cc1

pIC50 [1]: 7.43
SMILES: Cc1nc2c(s1)Sc1ccccc1N2Cc1ccc(C(=O)NO)cc1

pIC50 [1]: 8.15
SMILES: O=C(NO)c1ccc(CN2c3ccccc3Sc3ccncc32)cc1

pIC50 [1]: 7.74
SMILES: O=C(NO)c1ccc(CN2c3ccccc3Sc3cc(Cl)nnc32)cc1

pIC50 [1]: 7.77
SMILES: O=C(NO)c1ccc(CN2c3ccccc3Sc3nccnc32)cc1

inhibition [16]: 66% | pIC50 (Histone deacetylase 1): 6.01 | pIC50 [1]: 7.49
SMILES: CN1CCC2=C(C1)N(Cc1ccc(C(=O)NO)cc1)c1ccccc1S2
